Data reported in the supplement of paper PMC10307832.

Tests used:
Assay in all cases: relative viability (nuclei count vs DMSO), 5 days (fraction); higher = more cells survive
Midostaurin + Foretinib = compound: CO[C@@H]1[C@H](N(C)C(=O)c2ccccc2)C[C@H]2O[C@]1(C)n1c3ccccc3c3c4c(c5c6ccccc6n2c5c31)C(=O)NC4 [Midostaurin] + COc1cc2c(Oc3ccc(NC(=O)C4(C(=O)Nc5ccc(F)cc5)CC4)cc3F)ccnc2cc1OCCCN1CCOCC1 [Foretinib] (partner 0.25 µM)
In short: (§1)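 Lung cancer cell lines in 1536-well plates got either a single drug or a fixed anchor-drug dose together with five library-drug doses (not always all listed) in √10 steps, by pin tool, on the day after seeding. Nuclei were counted after 5 days, and relative viability is the treated-to-vehicle ratio of nuclei counts. Values are medians of duplicate plates.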

[1] = compound: COc1cc(-c2nn([C@H]3CC[C@H](N4CCN(C(C)=O)CC4)CC3)c3ncnc(N)c23)ccc1NC(=O)c1cc2ccccc2n1C + NC(=O)Nc1cc(-c2cccc(F)c2)sc1C(=O)N[C@H]1CCCNC1 [AZD7762] (partner 0.2 µM)
In short: as §1

Midostaurin + Pictilisib = compound: CO[C@@H]1[C@H](N(C)C(=O)c2ccccc2)C[C@H]2O[C@]1(C)n1c3ccccc3c3c4c(c5c6ccccc6n2c5c31)C(=O)NC4 [Midostaurin] + CS(=O)(=O)N1CCN(Cc2cc3nc(-c4cccc5[nH]ncc45)nc(N4CCOCC4)c3s2)CC1 [Pictilisib] (partner 1 µM)
In short: as §1

Midostaurin + Vorinostat = compound: CO[C@@H]1[C@H](N(C)C(=O)c2ccccc2)C[C@H]2O[C@]1(C)n1c3ccccc3c3c4c(c5c6ccccc6n2c5c31)C(=O)NC4 [Midostaurin] + O=C(CCCCCCC(=O)Nc1ccccc1)NO [Vorinostat] (partner 1 µM)
In short: as §1

[2] = compound: COc1cc(-c2nn([C@H]3CC[C@H](N4CCN(C(C)=O)CC4)CC3)c3ncnc(N)c23)ccc1NC(=O)c1cc2ccccc2n1C + CC(=O)Nc1cccc(-n2c(=O)n(C3CC3)c(=O)c3c(Nc4ccc(I)cc4F)n(C)c(=O)c(C)c32)c1 [Trametinib] (partner 0.02 µM)
In short: as §1

Cell Line	relative viability (Midostaurin + Foretinib; first compound 0.01 µM)	relative viability (Midostaurin + Foretinib; first compound 0.03162 µM)	relative viability (Midostaurin + Foretinib; first compound 0.1 µM)	relative viability (Midostaurin + Foretinib; first compound 0.3162 µM)	relative viability ([1]; first compound 0.0128 µM)	relative viability ([1]; first compound 0.04048 µM)	relative viability ([1]; first compound 0.128 µM)	relative viability ([1]; first compound 1.28 µM)	relative viability (Midostaurin + Pictilisib; first compound 0.01 µM)	relative viability (Midostaurin + Pictilisib; first compound 0.03162 µM)	relative viability (Midostaurin + Pictilisib; first compound 0.1 µM)	relative viability (Midostaurin + Pictilisib; first compound 0.3162 µM)	relative viability (Midostaurin + Vorinostat; first compound 0.01 µM)	relative viability (Midostaurin + Vorinostat; first compound 0.03162 µM)	relative viability (Midostaurin + Vorinostat; first compound 0.1 µM)	relative viability (Midostaurin + Vorinostat; first compound 0.3162 µM)	relative viability ([2]; first compound 0.0128 µM)	relative viability ([2]; first compound 0.04048 µM)	relative viability ([2]; first compound 0.128 µM)	relative viability ([2]; first compound 1.28 µM)
NCI-H1666	0.881	0.954	0.786	0.754	0.821	0.841	0.802	0.741	0.406	0.359	0.523	0.516	1.12	0.985	1.02	0.999	0.899	0.835	0.819	0.918
NCI-H1734	0.878	0.739	0.866	0.679	0.614	0.519	0.578	0.508	0.465	0.424	0.496	0.303	0.796	0.818	0.855	0.467	0.721	0.445	0.664	0.598
NCI-H1755	0.944	0.848	0.787	0.628	0.501	0.344	0.371	0.417	0.397	0.345	0.407	0.332	0.748	0.809	0.715	0.783	0.907	0.651	0.769	0.745
NCI-H1793	0.674	0.644	0.533	0.369	0.591	0.341	0.326	0.192	0.378	0.097	0.217	0.49	0.766	0.789	0.854	0.296	0.446	0.24	0.469	0.359
NCI-H1915	1.1	0.993	1.04	1.09	0.714	0.665	0.69	0.448	0.913	0.852	1.01	0.98	0.447	0.487	0.576	0.513	0.333	0.141	0.301	0.241
NCI-H1944	0.893	0.899	0.711	0.853	0.605	0.539	0.485	0.352	0.388	0.294	0.372	0.327	0.528	0.595	0.496	0.453	0.455	0.274	0.393	0.295
NCI-H1975	0.925	1.01	0.952	0.647	0.761	0.731	0.632	0.429	0.277	0.273	0.263	0.248	0.695	0.706	0.574	0.416	0.328	0.293	0.349	0.207
